Measurements as given in patent US9499495B2, “Quinazolines and azaquinazolines as dual inhibitors of RAS/RAF/MEK/ERK and PI3K/AKT/PTEN/mTOR pathways” (Asana Biosciences, LLC, priority 2013, dated 2016).

Experiments:
mTOR kinase = target: T1, mTOR kinase (Homo sapiens, UniProt P42345); assay: mTOR kinase TR-FRET assay; assay type: biochemical
T1 construct: purchased Millipore, US
Procedure: Compound inhibition for mTOR kinase was determined by homogeneous TR-FRET assay using ULight-p70 S6K (Thr 389) peptide as substrate. mTOR enzyme (Millipore, US; […]) was used in the assay. The reaction buffer was HEPES (50 mM, pH 7.5), EGTA (1 mM), and MnCl2 (3 mM). Test compound was pre-incubated with mTOR for 30 min followed by 50 nM ULight-p70 S6K (Thr 389) peptide along with ATP (20 μM).
After incubating the reaction mixture for 30 min, Eu-labeled anti-phospho-substrate antibody (1 nM, Perkin Elmer, USA) was added. Fluorescence emission at […] was measured upon excitation at 340 nm. The compound dilution was carried out in 100% DMSO followed by a buffer dilution. The kinase reaction was incubated for 1 h at rt followed by the addition of substrate-ATP mix and incubated at rt for 1 h. The reaction was terminated by the addition of EDTA followed by the addition of detection mix. IC50 values were determined using a sigmoidal dose response curve fit, GraphPad Prism® v5 software.

pERK in A375 cells = assay: In Cell Western (ICW) assay, pERK in A375 cells; assay type: cell-based; details: Homo sapiens, A-375, 3 h treatment
Procedure: Cell lines A375, A2058 and RKO obtained from the ATCC as provided above, were grown, and after attaining ˜80% confluency were trypsinized, centrifuged and resuspended in fresh media. The cells were seeded at the specified density (20,000 to 50,000) in a 96-well format black-well clear bottom plate (Corning) and incubated overnight at 37° C. in a 5% CO2 incubator. The next day, compound dilutions of test compounds were prepared in 100% DMSO followed by dilutions in respective media. Treatment of test compounds was performed for 3 h at 37° C. in 5% CO2 incubator. Following 3 h drug treatment, the conditional media was discarded and the cells were washed once with cPBS (PBS containing 0.1% magnesium chloride hexahydrate and 0.1% anhydrous calcium chloride) and fixed with 4% paraformaldehyde in cPBS for 1 h at rt. After fixing, the cells were given three washes using cPBST (cPBS containing 0.1% Triton™ X-100 reagent) and then blocked using blocking solution (5% skimmed milk powder or 5% BSA prepared in cPBST) for 2 h at rt with shaking at 300 rpm. The cells were again washed thrice with cPBST and incubated with primary antibody phospho-p44/42 MAPK(Erk1/2)(Thr202/204) antibody (Cell Signaling, Catalog # 9101L), phospho S6 ribosomal protein (Cell Signaling, Catalog #4858L), phospho AKT (Thr 308) (Cell Signaling, Catalog #9275) or phospho AKT (Ser 473) (Cell Signaling, Catalog #4060L) in specified dilutions (1:500-1:2500), prepared in respective blocking solutions, in a racker overnight at 4° C. The next day, the cells were washed with 1× Delfia® wash buffer (4×1 wash) and incubated with secondary antibody (Delfia®-Eu-N1 labeled anti-rabbit antibody; PerkinElmer, Catalog #AD0105; dilutions: 1:2000 to 1:6000 in Delfia® assay buffer (PerkinElmer, Catalog #1244-111)) for 2 h at rt in the dark at 300 rpm. The cells were then given four washes with 1× Delfia® wash buffer and incubated with Wallac Delfia® Enhancement solution (100 μL; PerkinElmer, Catalog #1244-105) for 20 min at rt in the dark at 300 rpm. The fluorescence emission was then read at 615 nm with an excitation wavelength of 340 nm using a Victor V5 Fluorometer (Perkin Elmer, US). The cells were then washed once with 1×cPBS and incubated with 100 μL of 0.5 mg/mL of Hoechst 33258 dye prepared in cPBS and read at 460 nm with 355 nm excitation, thereby evaluating the correction factor.
The % inhibition for the test compounds of formula (I) (new chemical entities (NCEs)) was calculated keeping DMSO control as 0% and the IC50 values were determined using sigmoidal dose response curve fit in GraphPad Prism® v5 software.

B-RAFV600E = target: T2, B-RAFV600E (Homo sapiens, UniProt P15056, V600E); assay: B-RAFV600E radiometric assay; assay type: biochemical; details: read-out: Kinase assay B-Raf
T2 construct: purchased Millipore, USA 14-557
T2 sequence (P15056 416-766 V600E limits assumed): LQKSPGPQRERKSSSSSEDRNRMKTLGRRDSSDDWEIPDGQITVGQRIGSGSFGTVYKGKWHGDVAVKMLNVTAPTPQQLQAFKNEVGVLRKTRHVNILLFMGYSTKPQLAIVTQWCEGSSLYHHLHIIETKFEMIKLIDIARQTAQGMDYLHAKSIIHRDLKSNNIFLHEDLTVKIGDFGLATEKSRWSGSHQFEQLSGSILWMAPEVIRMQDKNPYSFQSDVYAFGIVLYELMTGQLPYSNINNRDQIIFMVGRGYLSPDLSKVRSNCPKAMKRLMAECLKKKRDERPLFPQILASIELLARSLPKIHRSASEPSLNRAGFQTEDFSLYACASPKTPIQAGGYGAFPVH
Procedure: Compound inhibition for B-RAFV600E was determined through radiometric assay using a BRAF enzyme (Catalog No. 14-557, Millipore, USA) and MEK-K97M protein as a substrate (Catalog No. 0785-0000-1, ProqQinase GmbH, Germany). The B-RAF kinase catalyzes the phosphorylation of MEK protein in the presence of gamma ATP (PLC-101, Jonaki, CCMB, Hyderabad), cold ATP and Mg^2+.
The phosphorylated protein product is detected by the scintillation counter Topcount® machine (Perkin Elmer). This assay has been adapted from the method previously reported by Yeh et al. (2007, Clinical Cancer Research; 13, 1576-1583). The assay measures the B-RAF mediated transfer of 32P from the gamma position of radiolabeled ATP onto MEK1-KD. The labeled phosphorylated protein was measured in MicroBeta® Trilux Counter (Perkin Elmer). The assay was validated with reference compounds RAF1 Kinase Inhibitor I and ZM 336372 inhibitor which are reported to be inhibitors of B-RAF enzyme (Lackey, 2000, Medicinal Chemistry Letters; 10(3):223-226; Kupcho, “Fluorescent High throughput kinase cascade assays for inhibitor characterization, RAF-MEK-ERK pathway, www.invitrogen.com, and Hall-Jackson, 1999, Chemical Biology; 6(8):559-568). B-RAF enzyme mixture (13 μL) was added to compound wells containing 2 μL of the NCE in 1% DMSO and incubated for 45 min at rt on a shaking incubator at 300 rpm. MEK-K97M (0.5 μg) and cold ATP to a final concentration of 5 μM, and hot ATP 0.1 μCi in a volume of 10 μL was added to each well and incubated for 2 h at rt on a shaking incubator at 300 rpm. The reaction was stopped by addition of […] (13 μL) containing ATP (1 mM: 495 μL 1N HCl and 5 μL 100 mM ATP). Aliquot (30 μL) was then transferred to the center of a 2 cm×2 cm P81 paper. P81 paper was washed 8×5 min each with ortho-phosphoric acid (0.5%). P81 papers are washed twice with acetone for […] Assay squares were allowed to dry for […] at 37° C. P81 paper are transferred to Optiplate™ (Perkin Elmer) and counted in a Topcount® counter (Perkin Elmer). Data was plotted against the compound concentration to generate dose-response curves and IC50 values were determined using a sigmoidal dose response curve fit GraphPad Prism® v5 software.

T1 sequence (P42345 1362-2549 limits assumed): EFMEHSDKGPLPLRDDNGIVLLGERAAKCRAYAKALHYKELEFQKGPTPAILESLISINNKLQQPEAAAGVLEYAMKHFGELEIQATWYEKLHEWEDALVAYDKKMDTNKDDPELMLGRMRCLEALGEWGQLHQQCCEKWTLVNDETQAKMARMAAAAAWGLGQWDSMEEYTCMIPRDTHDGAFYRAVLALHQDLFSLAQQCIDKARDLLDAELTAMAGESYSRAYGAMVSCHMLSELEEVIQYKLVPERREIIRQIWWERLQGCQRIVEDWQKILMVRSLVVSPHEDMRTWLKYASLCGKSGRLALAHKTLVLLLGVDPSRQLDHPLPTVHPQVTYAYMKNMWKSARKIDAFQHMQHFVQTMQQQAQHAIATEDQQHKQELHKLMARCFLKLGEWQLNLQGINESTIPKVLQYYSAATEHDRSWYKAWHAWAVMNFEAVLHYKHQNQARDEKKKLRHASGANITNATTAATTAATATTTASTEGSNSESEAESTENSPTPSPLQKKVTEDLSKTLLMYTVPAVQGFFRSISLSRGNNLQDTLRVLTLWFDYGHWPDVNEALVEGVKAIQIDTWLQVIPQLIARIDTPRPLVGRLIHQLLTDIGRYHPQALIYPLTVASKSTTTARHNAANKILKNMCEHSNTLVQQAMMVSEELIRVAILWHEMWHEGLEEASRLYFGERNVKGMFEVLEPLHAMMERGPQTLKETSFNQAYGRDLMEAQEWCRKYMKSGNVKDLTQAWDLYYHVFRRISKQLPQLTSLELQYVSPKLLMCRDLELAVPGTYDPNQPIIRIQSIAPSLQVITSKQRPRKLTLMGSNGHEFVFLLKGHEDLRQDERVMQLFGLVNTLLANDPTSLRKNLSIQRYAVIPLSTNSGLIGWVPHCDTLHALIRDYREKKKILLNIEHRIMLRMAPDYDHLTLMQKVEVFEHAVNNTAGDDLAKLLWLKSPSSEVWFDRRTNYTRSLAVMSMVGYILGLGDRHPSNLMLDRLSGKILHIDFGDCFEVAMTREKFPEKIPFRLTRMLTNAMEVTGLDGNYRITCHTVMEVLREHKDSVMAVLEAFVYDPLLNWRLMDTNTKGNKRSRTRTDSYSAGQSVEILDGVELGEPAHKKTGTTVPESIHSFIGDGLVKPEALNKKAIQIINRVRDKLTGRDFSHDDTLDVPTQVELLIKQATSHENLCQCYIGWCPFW

Row | IC50 (mTOR kinase) | IC50 (pERK in A375 cells) | IC50 (B-RAFV600E) | Compound
1 | 1 to 100 nM | 1000 to 10000 nM | 100 to 1000 nM | COc1cc(-c2cccc(NS(=O)(=O)c3c(F)cccc3F)c2F)cc2c(N3CCOCC3)nc(-c3ccc(NC(=O)NCCO)cc3)nc12 [Example 12, 2,6-difluoro-N-(2-fluoro-3-(2-(4-(3-(2-hydroxyethyl)ureido)phenyl)-8-methoxy-4-morpholinoquinazolin-6-yl)phenyl)benzenesulfonamide]
2 | 100 to 1000 nM | 100 to 1000 nM | 100 to 1000 nM | COc1cc(-c2cccc(NS(=O)(=O)c3c(F)cccc3F)c2F)cc2c(N3CCOCC3)nc(-c3cnc4[nH]ccc4c3)nc12 [Example 16, 2,6-difluoro-N-(2-fluoro-3-(8-methoxy-4-morpholino-2-(1H-pyrrolo[2,3-b]pyridin-5-yl)quinazolin-6-yl)phenyl)benzenesulfonamide]
3 | 1 to 100 nM | 100 to 1000 nM | 100 to 1000 nM | CNC(=O)Nc1ccc(-c2nc(N3CCOCC3)c3cc(-c4cccc(NS(=O)(=O)CCCF)c4F)cc(OC)c3n2)cc1 [Example 32, 3-fluoro-N-(2-fiuoro-3-(8-methoxy-2-(4-(3-methylureido)phenyl)-4-morpholinoquinazolin-6-yl)phenyl)propane-1-sulfonamide]
4 | 100 to 1000 nM | 1 to 100 nM | 1 to 100 nM | Nc1ccc(-c2nc(N3CCOCC3)c3cc(-c4cccc(NS(=O)(=O)CCCF)c4F)cc(OCC4CC4)c3n2)cn1 [Example 57, N-(3-(2-(6-aminopyridin-3-yl)-8-(cyclopropylmethoxy)-4-morpholinoquinazolin-6-yl)-2-fluorophenyl)-3-fluoropropane-1-sulfonamide]
5 | 1 to 100 nM | 100 to 1000 nM | 1 to 100 nM | Nc1ccc(-c2nc(N3CCOCC3)c3cc(-c4cccc(NS(=O)(=O)CCCF)c4F)cc(OCCO)c3n2)cn1 [Example 58, N-(3-(2-(6-aminopyridin-3-yl)-8-(2-hydroxyethoxy)-4-morpholinoquinazolin-6-yl)-2-fluorophenyl)-3-fluoropropane-1-sulfonamide]
6 | 1 to 100 nM | 1 to 100 nM | 1 to 100 nM | CCNc1ccc(-c2nc(N3CCOCC3)c3nc(-c4cccc(NS(=O)(=O)CCCF)c4F)ccc3n2)cn1 [Example 123, N-(3-(2-(6-(ethylamino)pyridin-3-yl)-4-morpholinopyrido[3,2-d]pyrimidin-6-yl)-2-fluorophenyl)-3-fluoropropane-1-sulfonamide]
7 | 1 to 100 nM | 1 to 100 nM | 100 to 1000 nM | COc1cc(-c2cccc(NS(=O)(=O)CCCF)c2F)cc2c(N3CCOCC3)nc(-c3ccc(NC(C)=O)cc3)nc12 [Example 125, N-(4-(6-(2-fluoro-3-(3-fluoropropylsulfonamido)phenyl)-8-methoxy-4-morpholinoquinazolin-2-yl)phenyl)acetamide]
8 | 100 to 1000 nM | – | 1 to 100 nM | CCOc1cc(-c2cccc(NS(=O)(=O)CCCF)c2F)cc2c(N3CCOC[C@H]3C)nc(-c3cnc(NC)nc3)nc12 [Example 138, (R)-N-(3-(8-ethoxy-2-(2-(methylamino)pyrimidin-5-yl)-4-(3-methylmorpholino)quinazolin-6-yl)-2-fluorophenyl)-3-fluoropropane-1-sulfonamide]
9 | 100 to 1000 nM | – | 1 to 100 nM | C[C@@H]1COCCN1c1nc(-c2cnc(N)nc2)nc2c(OCCF)cc(-c3cccc(NS(=O)(=O)CCCF)c3F)cc12 [Example 141, (R)-N-(3-(2-(2-aminopyrimidin-5-yl)-8-(2-fluoroethoxy)-4-(3-methylmorpholino)quinazolin-6-yl)-2-fluorophenyl)-3-fluoropropane-1-sulfonamide]
10 | 100 to 1000 nM | – | 1 to 100 nM | C[C@@H]1COCCN1c1nc(-c2cnc(N)c(F)c2)nc2c(OCCF)cc(-c3cccc(NS(=O)(=O)CCCF)c3F)cc12 [Example 142, (R)-N-(3-(2-(6-amino-5-fluoropyridin-3-yl)-8-(2-fluoroethoxy)-4-(3-methylmorpholino)quinazolin-6-yl)-2-fluorophenyl)-3-fluoropropane-1-sulfonamide]
11 | 100 to 1000 nM | – | 1 to 100 nM | COc1cc(-c2cccc(NS(=O)(=O)CCCF)c2F)cc2c(N3CCOC[C@H]3C)nc(-c3cnc(N)cn3)nc12 [Example 143, (R)-N-(3-(2-(5-aminopyrazin-2-yl)-8-methoxy-4-(3-methylmorpholino)quinazolin-6-yl)-2-fluorophenyl)-3-fluoropropane-1-sulfonamide]
12 | 100 to 1000 nM | – | 1 to 100 nM | COc1cc(-c2cccc(NS(=O)(=O)CCCF)c2F)cc2c(N3CCOC[C@H]3C)nc(-c3cnc(N)cc3C#N)nc12 [Example 144, (R)-N-(3-(2-(6-amino-4-cyanopyridin-3-yl)-8-methoxy-4-(3-methylmorpholino)quinazolin-6-yl)-2-fluorophenyl)-3-fluoropropane-1-sulfonamide]
